# Results as given in patent US20120321609A1, “METHOD OF TREATING PSYCHOLOGICAL DISORDERS” (priority 2011, published 2012).
# Columns and labels:
# 5-HT2AR [1] = test: Biotinylation of cell surface FLAG-5-HT2AR in HEK 293 cells; assay type: cell-based, human; details: CRF 500 nM pretreatment 30 min
# Procedure: HEK 293 cells transiently expressing wild-type and truncated FLAG-5-HT2AR and HA-CRFR1 were seeded into 100 mm dishes and pre-incubated for 30 minutes in HBSS. […] Cell surface receptors were labeled on ice with biotin (1 mg/ml) for 1 hour. Following labeling, cells were washed 3 times with 10 mM glycine and then 2 times with HBSS, lysed and equal amounts of total protein were incubated with neutravidin beads for 2 hours with rotation at 4° C. Beads were then washed 3 times with lysis buffer and one time with PBS. Proteins were eluted from beads by addition of 50 ul of SDS loading buffer. Samples were resolved by SDS-PAGE, transferred to nitrocellulose membrane and subsequently immunoblotted as described above with rabbit polyclonal FLAG antibody.
# mice = test: Elevated plus maze test (anxiety-related behaviour); assay type: in vivo, mouse; details: DOI 0.15 mg/kg i.p.
# Procedure: Male CD-1 mice were obtained from Charles River Canada (St. Constant, Quebec) at 50-60 days of age, and were acclimatized to the laboratory for approximately 30 days before serving as experimental subjects. Mice were housed four per cage, until the time of surgery, after which they were housed individually. The vivarium was maintained on a 12-h light/dark cycle in a temperature (21° C.) controlled room with food and water freely available. Mice were anesthetized using isoflurane and stereotaxic surgery (David Kopf Instruments Model 940) was performed to install a cannulae into the medial prefrontal cortex. A Guide cannulae (Plastics One In), situated according to the mouse atlas of Franklin and Paxinos at Lateral=0.32 mm, D/V=2.25 mm, A/P=+2.68 mm. A dummy cannula, was inserted flush with guide. Approximately 1 week after behavioral testing mice were perfused with 4% paraformaldehyde. Brains were subsequently sectioned at 14 microns and stained with Cresyl violet for probe placement verification. Only the data from mice with correct probe placements were used in the analysis of the behavioral tests.
# Drug diffusion was permitted for 5 min, and then after a further 5 min period mice were injected intraperotineally with DOI (Sigma) at a dose of 0.15 mg/kg or saline. Behavioral testing was conducted 15 min after the DOI treatment. In a second experiment the procedure was identical to that of the preceding study, except that mice were pretreated i.p. with either vehicle or 0.25 mg/kg of M100907 in a volume of 0.3 ml immediately prior to the DOI treatment. As in the preceding study mice were then tested in the elevated plus maze test (n=6-8)/group. Once again, data were obtained from videotapes and the researcher was blind as to the treatments mice had received.
# In an initial test, mice were placed in a 45×45 cm open field, with an inner square of 21×24×24 cm., for a 5 min period, during which the time to enter the center area, and the total time spent in the center portion of the arena was recorded. The plus maze test was then conducted 1 min after the open field assessment. Mice were individually placed in one of the enclosed arms of a plus-maze and the behavior of the animals was recorded over a 5 min period by a ceiling-mounted video camera. The amount of time spent in each of the arms, the number of arm entries (an arm entry was defined as all four of the paws being placed in an arm of the plus-maze). The elevated plus-maze had two arms enclosed by 21 cm high walls; whereas the remaining two arms were open (arms were 24.8 cm long×7.7 cm wide). The maze was situated in a dimly lit room, such that the closed arms were darkened, whereas open arms were somewhat illuminated. All behavioural experiments were blinded. All experiments complied with the guidelines set by the Canadian Council on Animal Care and were approved by the Carleton University Animal Care Committee.
# [2] = tested on: slices prepared from prefrontal cortex; test: Inositol phosphate formation in prefrontal cortex slices; assay type: cell-based, mouse; details: CRF 500 nM pretreatment
# Procedure: Slices were incubated for 15 min at 37° C. […] (final volume=270 μl).
# ERK1/2 = ERK1/2 phosphorylation immunoblot in HEK 293 cells; assay type: cell-based, human; details: 500 nM CRF; 0, 2, 5, 15 and 30 min
# Procedure: Following transfection, HEK 293 cells were re-seeded into 6-well plates. […] Cells were lysed with lysis buffer (50 mM Tris, pH 8.0, 150 mM NaCl, and 0.1% Triton X-100) containing protease inhibitors (1 mM AEBSF, 10 μg/ml leupeptin, and 5 μg/ml aprotinin) for 20 min on a rocking platform at 4° C. Samples were collected into 1.5 mL Eppendorf tubes and centrifuged at 15,000 g for 15 min at 4° C. to pellet insoluble material. A […] protein assay was performed and 50 μg of protein was incubated overnight at room temperature in 3×SDS Loading Buffer containing 2-mercaptoethanol. Samples were separated by SDS-PAGE, transferred to a nitrocellulose membrane, and immunoblotted for ERK1/2 (rabbit anti-p44/42 mitogen-activated protein kinase (MAPK), 1:1000), phospho-ERK1/2 (rabbit anti-phospho-p44/42 MAPK, 1:1000), SAP97 (mouse anti-SAP97, 1:1000), and HA-CRFR1 expression (mouse anti-HA, 1:1000), followed by a horseradish peroxidase-conjugated secondary anti-rabbit antibody (1:10,000) or anti-mouse antibody (1:10,000) where appropriate. Proteins were detected using chemiluminescence with the enhanced chemiluminescence kit from GE Healthcare.
# 5-HT2AR [3] = biological target: T1, 5-HT2AR (Homo sapiens, UniProt P28223); test: 5-HT-stimulated inositol phosphate formation in HEK 293 cells co-expressing CRFR2 and 5-HT2AR; assay type: cell-based; details: CRF 500 nM pretreatment 30 min
# T1 construct: expressed in transfected cells; host or cells: HEK 293
# [4] = first experiment, CRF 1.5 μg into medial prefrontal cortex
# [5] = second experiment (M100907 study), CRF 1.5 μg mPFC, M100907 0.25 mg/kg i.p.
# T1 sequence (P28223 whole entry): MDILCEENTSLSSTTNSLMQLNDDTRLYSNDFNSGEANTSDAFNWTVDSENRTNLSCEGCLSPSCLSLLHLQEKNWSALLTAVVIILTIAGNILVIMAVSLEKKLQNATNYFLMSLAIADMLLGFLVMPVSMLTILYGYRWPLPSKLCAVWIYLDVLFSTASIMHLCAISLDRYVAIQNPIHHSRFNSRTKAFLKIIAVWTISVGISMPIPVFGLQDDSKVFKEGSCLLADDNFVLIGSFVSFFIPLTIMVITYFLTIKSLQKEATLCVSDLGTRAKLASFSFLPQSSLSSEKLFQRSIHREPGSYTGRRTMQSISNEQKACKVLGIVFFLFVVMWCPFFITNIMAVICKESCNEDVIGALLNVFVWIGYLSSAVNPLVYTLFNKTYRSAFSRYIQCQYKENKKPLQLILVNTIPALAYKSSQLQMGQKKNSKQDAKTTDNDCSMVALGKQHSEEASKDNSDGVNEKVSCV
# Sequence of 5-HT2AR (P28223 whole entry, the tested form may be a part): as the sequence (P28223 whole entry) above
substance,measurement,setting,value
CRF: 41 amino acid peptide that activates the HPA axis; agonist of CRF receptors,increase in cell surface expression of the 5-HT2AR,5-HT2AR [1],3.7±1.8 fold
same,latency to enter an open arm of the plus maze,mice; [4],had no effect
same,number of entries into the closed arms of the plus maze,mice; [4],did not vary
same,number of entries onto the open arms of the plus maze,mice; [4],had no effect
same,frequency of open arm entries in the plus maze,mice; [5],neither CRF nor DOI alone affected the frequency of open arm entries
same,latency to enter the open arms of the plus maze,mice; [5],"moderate, but statistically significant increase"
same,time spent in the closed arms of the plus maze,mice; [5],unaffected
same,entries to the closed arms of the plus maze,"mice; second experiment (M100907 study), CRF 1.5 μg mPFC, M100907 0.25 mg/kg i.p., relative to vehicle",increased closed arm entries
same,increase in 5-HT-stimulated inositol phosphate formation,[2]; stimulated with 5-HT,2.3±0.2 fold
same,increase in DOI-stimulated inositol phosphate formation,[2]; stimulated with DOI 10 μM,1.5±0.2 fold
same,ERK1/2 phosphorylation in cells transfected with HA-CRFR1 and scrambled shRNA,ERK1/2,more robust and sustained activation
same,ERK1/2 phosphorylation in non-transfected HEK 293 cells,ERK1/2,increase in detectable ERK1/2 phosphorylation at 5 min
same,effect of pretreatment on 5-HT2AR-stimulated inositol phosphate responses,5-HT2AR [3],did not increase
